The values that follow come from US20260347373A1, “HETEROCYCLIC COMPOUNDS, COMPOSITIONS THEREOF, AND METHODS OF TREATMENT THEREWITH” (BeOne Medicines I GmbH, priority 2023, published 2026).

One test has as its target KRAS G12D (Homo sapiens, UniProt P01116, G12D). Put plainly: KRAS G12D Probe Displacement Assay (TR-FRET, GDP-loaded). Type of test: binding. An excerpt: (§1) The synthetic routes of probe 1 and 2, which have been disclosed in PCT/CN2022/070676, are hereby incorporated herein.
A general note: In TR-FRET formats the signal depends on donor and acceptor labels being close together.

For the next test, the target named is WT KRAS (Homo sapiens, UniProt P01116). Put plainly: KRAS WT Probe Displacement Assay (TR-FRET, GDP-loaded). Type of test: binding. The settings on record: KRAS WT, read-out: KRAS^WT Probe Displacement Assay IC50.
Sequence of WT KRAS (P01116 1-188 isoform P01116-2): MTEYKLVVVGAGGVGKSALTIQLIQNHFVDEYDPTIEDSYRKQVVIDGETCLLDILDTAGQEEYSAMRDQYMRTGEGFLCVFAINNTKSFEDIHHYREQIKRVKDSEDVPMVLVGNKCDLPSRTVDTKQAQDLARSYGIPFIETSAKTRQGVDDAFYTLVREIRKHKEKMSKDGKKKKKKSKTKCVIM
Excerpt: as §1

The mark [1] stands for this setting: KRAS G12D, read-out: KRAS^G12D Probe Displacement Assay IC50.

Like-named read-outs stand apart in the source and are kept apart here.

Sequence of KRAS G12D (P01116 1-188 isoform P01116-2 G12D): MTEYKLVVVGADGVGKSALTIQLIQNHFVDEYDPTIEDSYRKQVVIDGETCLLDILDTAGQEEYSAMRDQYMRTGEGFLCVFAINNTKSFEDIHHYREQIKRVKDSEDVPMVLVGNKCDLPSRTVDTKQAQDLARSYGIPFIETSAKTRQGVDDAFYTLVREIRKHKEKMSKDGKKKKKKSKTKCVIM

For the compound `Cc1cc(N)cc(-c2nc3c4c(nc(O[C@H]5COC[C@H]5N(C)C)nc4c2F)N2C[C@H]4CC[C@H](N4)[C@H]2CCO3)c1C(F)(F)F` [Example 39, (3R,4R)-4-(((6aR,7S,10R)-2-(5-amino-3-methyl-2-(trifluoromethyl)phenyl)-1-fluoro-5,6,6a,7,8,9,10,11-octahydro-4-oxa-3,11a,12,14,15-pentaaza-7,10-methanocyclohepta[4,5]cycloocta [1,2,3-de]naphthalen-13-yl)oxy)-N,N-dimethyltetrahydrofuran-3-amine], the IC50 (commonly the concentration at which inhibition is half-maximal) at KRAS G12D (setting [1]) fell in the range of 3 to 1000 nM.

Take `CCN1CC(F)CC(C)(COc2nc3c4c(nc(-c5cc(N)cc(C)c5C(F)(F)F)c(F)c4n2)OCC[C@@H]2[C@@H]4CC[C@H](CN32)N4)C1` (stereo partly drawn) [Example 203, 3-((6aR,7S,10R)-13-((1-ethyl-5-fluoro-3-methylpiperidin-3-yl)methoxy)-1-fluoro-5,6,6a,7,8,9,10,11-octahydro-4-oxa-3,11a,12,14,15-pentaaza-7,10-methanocyclohepta[4,5]cycloocta[1,2,3-de]naphthalen-2-yl)-5-methyl-4-(trifluoromethyl)aniline]: the IC50 at KRAS G12D (setting [1]) is 0.3 to 3 nM.

For `Cc1cc(N)cc(-c2nc3c4c(nc(OCC5(C)CN(C)CC/C5=C\F)nc4c2F)N2C[C@H]4CC[C@H](N4)[C@H]2CCO3)c1C(F)(F)F` (single isomer, unassigned) [Example 237], the IC50 at WT KRAS is 0.3 to 3 nM.

Regarding `Cc1cc(N)cc(-c2nc3c4c(nc(O[C@H]5CCOC[C@H]5N(C)C)nc4c2F)N2C[C@H]4CC[C@H](N4)[C@H]2CCO3)c1C(F)(F)F` [Example 11, (3R,4S)-4-(((6aR,7S,10R)-2-(5-amino-3-methyl-2-(trifluoromethyl)phenyl)-1-fluoro-5,6,6a,7,8,9,10,11-octahydro-4-oxa-3,11a,12,14,15-pentaaza-7,10-methanocyclohepta[4,5]cycloocta [1,2,3-de]naphthalen-13-yl)oxy)-N,N-dimethyltetrahydro-2H-pyran-3-amine], at KRAS G12D (setting [1]), the IC50 lay in the range of 3 to 1000 nM.

With `CO[C@@H]1C[C@@H](C(C)Oc2nc3c4c(nc(-c5cc(N)cc(C)c5C(F)(F)F)c(F)c4n2)OCC[C@@H]2[C@@H]4CC[C@H](CN32)N4)N(C)C1` (single isomer, unassigned) [Example 145], at KRAS G12D (setting [1]), the IC50 lay in the range of 0.3 to 3 nM.

For `Cc1cc(N)cc(-c2nc3c4c(nc(OC[C@H]5COC[C@@H]5N(C)C)nc4c2F)N2C[C@H]4CC[C@H](N4)[C@H]2CCO3)c1C(F)(F)F` [Example 14, (3R,4R)-4-((((6aR,7S,10R)-2-(5-amino-3-methyl-2-(trifluoromethyl)phenyl)-1-fluoro-5,6,6a,7,8,9,10,11-octahydro-4-oxa-3,11a,12,14,15-pentaaza-7,10-methanocyclohepta[4,5]cycloocta [1,2,3-de]naphthalen-13-yl)oxy)methyl)-N,N-dimethyltetrahydrofuran-3-amine], on KRAS G12D (setting [1]), the 50% inhibitory concentration (IC50) was 3 to 1000 nM.

`Cc1cc(N)cc(-c2nc3c4c(nc(OCC5(CN6CCn7ncnc7C6)CC5)nc4c2F)N2C[C@H]4CC[C@H](N4)[C@H]2CCO3)c1C(F)(F)F` [Example 109, 3-((6aR,7S,10R)-13-((1-((5,6-dihydro-[1,2,4]triazolo[1,5-a]pyrazin-7(8H)-yl)methyl)cyclopropyl)methoxy)-1-fluoro-5,6,6a,7,8,9,10,11-octahydro-4-oxa-3,11a, 12,14,15-pentaaza-7,10-methanocyclohepta [4,5]cycloocta [1,2,3-de]naphthalen-2-yl)-5-methyl-4-(trifluoromethyl)aniline]: the IC50 at KRAS G12D (setting [1]) is 3 to 1000 nM.

Take `Cc1cc(N)cc(-c2nc3c4c(nc(O[C@H]5COC[C@@H]5N(C)C)nc4c2F)N2C[C@H]4CC[C@H](N4)[C@H]2CCO3)c1C(F)(F)F` [Example 40, (3S,4R)-4-(((6aR,7S,10R)-2-(5-amino-3-methyl-2-(trifluoromethyl)phenyl)-1-fluoro-5,6,6a,7,8,9,10,11-octahydro-4-oxa-3,11a,12,14,15-pentaaza-7,10-methanocyclohepta[4,5]cycloocta [1,2,3-de]naphthalen-13-yl)oxy)-N,N-dimethyltetrahydrofuran-3-amine]: at KRAS G12D (setting [1]), the IC50 was in the range of 3 to 1000 nM.

`COC1CN(C)CC(C)(COc2nc3c4c(nc(-c5cc(N)cc(C)c5C(F)(F)F)c(F)c4n2)OCC[C@@H]2[C@@H]4CC[C@H](CN32)N4)C1` (stereo partly drawn) [Example 127, 3-((6aR,7S,10R)-1-fluoro-13-((5-methoxy-1,3-dimethylpiperidin-3-yl)methoxy)-5,6,6a,7,8,9,10,11-octahydro-4-oxa-3,11a,12,14,15-pentaaza-7,10-methanocyclohepta[4,5]cycloocta[1,2,3-de]naphthalen-2-yl)-5-methyl-4-(trifluoromethyl)aniline]: at KRAS G12D (setting [1]), the IC50 was < 0.3 nM.

Regarding `Cc1cc(N)cc(-c2nc3c4c(nc(O[C@@H]5CCOC[C@H]5N(C)C)nc4c2F)N2C[C@H]4CC[C@H](N4)[C@H]2CCO3)c1C(F)(F)F` [Example 7], on KRAS G12D (setting [1]), the IC50 was 3 to 1000 nM.

`Cc1cc(N)cc(-c2nc3c4c(nc(OCC5(CN6CCCC6CO)CC5)nc4c2F)N2C[C@H]4CC[C@H](N4)[C@H]2CCO3)c1C(F)(F)F` (single isomer, unassigned) [Example 125]: at KRAS G12D (setting [1]), the concentration for half-maximal inhibition (IC50) is < 0.3 nM.

With `Cc1cc(N)cc(-c2nc3c4c(nc(O[C@H]5CCOC[C@@H]5N(C)C)nc4c2F)N2C[C@H]4CC[C@H](N4)[C@H]2CCO3)c1C(F)(F)F` [Example 9, (3S,4S)-4-(((6aR,7S,10R)-2-(5-amino-3-methyl-2-(trifluoromethyl)phenyl)-1-fluoro-5,6,6a,7,8,9,10,11-octahydro-4-oxa-3,11a,12,14,15-pentaaza-7,10-methanocyclohepta[4,5]cycloocta [1,2,3-de]naphthalen-13-yl)oxy)-N,N-dimethyltetrahydro-2H-pyran-3-amine], the IC50 at KRAS G12D (setting [1]) fell in the range of 3 to 1000 nM.

For the compound `Cc1cc(N)cc(-c2nc3c4c(nc(OCC5(C)CN(CC6CC6)CC/C5=C\F)nc4c2F)N2C[C@H]4CC[C@H](N4)[C@H]2CCO3)c1C(F)(F)F` (single isomer, unassigned) [Example 239], at WT KRAS, the IC50 fell in the range of 0.3 to 3 nM.

For the compound `COC1CN(C)CC(C)(COc2nc3c4c(nc(-c5cc(N)cc(C)c5C(F)(F)F)c(F)c4n2)OCC[C@@H]2[C@@H]4CC[C@H](CN32)N4)C1` (stereo partly drawn) [Example 129, 3-((6aR,7S,10R)-1-fluoro-13-((5-methoxy-1,3-dimethylpiperidin-3-yl)methoxy)-5,6,6a,7,8,9,10,11-octahydro-4-oxa-3,11a,12,14,15-pentaaza-7,10-methanocyclohepta[4,5]cycloocta[1,2,3-de]naphthalen-2-yl)-5-methyl-4-(trifluoromethyl)aniline], the IC50 at KRAS G12D (setting [1]) fell in the range of 3 to 1000 nM.

`COC1CN(CC2(COc3nc4c5c(nc(-c6cc(N)cc(C)c6C(F)(F)F)c(F)c5n3)OCC[C@@H]3[C@@H]5CC[C@H](CN43)N5)CC2(F)F)C1` (single isomer, unassigned) [Example 21]: the IC50 on KRAS G12D (KRAS^G12D Probe Displacement Assay IC50, KRAS G12D) lay in the range of 0.3 to 3 nM.

Turning to `Cc1cc(N)cc(-c2nc3c4c(nc(OCC5(CN6CC7CC7C6)CC5(F)F)nc4c2F)N2C[C@H]4CC[C@H](N4)[C@H]2CCO3)c1C(F)(F)F` (single isomer, unassigned) [Example 29], the IC50 on WT KRAS is 0.3 to 3 nM.

`Cc1cc(N)cc(-c2nc3c4c(nc(OC[C@]5(CN(C)C)CC5(F)F)nc4c2F)N2C[C@H]4CC[C@H](N4)[C@H]2CC(C)O3)c1C(F)(F)F` (single isomer, unassigned) [Example 249]: the IC50 at WT KRAS was in the range of 3 to 1000 nM.

Turning to `CO[C@H]1CCN(C)[C@@H]1C(C)Oc1nc2c3c(nc(-c4cc(N)cc(C)c4C(F)(F)F)c(F)c3n1)OCC[C@@H]1[C@@H]3CC[C@H](CN21)N3` (single isomer, unassigned) [Example 76], the IC50 at KRAS G12D (setting [1]) was 0.3 to 3 nM.

On to `Cc1cc(N)cc(-c2nc3c4c(nc(O[C@H]5COCC[C@H]5N(C)C)nc4c2F)N2C[C@H]4CC[C@H](N4)[C@H]2CCO3)c1C(F)(F)F` [Example 12, (3R,4R)-3-(((6aR,7S,10R)-2-(5-amino-3-methyl-2-(trifluoromethyl)phenyl)-1-fluoro-5,6,6a,7,8,9,10,11-octahydro-4-oxa-3,11a,12,14,15-pentaaza-7,10-methanocyclohepta[4,5]cycloocta [1,2,3-de]naphthalen-13-yl)oxy)-N,N-dimethyltetrahydro-2H-pyran-4-amine], for which the IC50 at KRAS G12D (setting [1]) lay in the range of 3 to 1000 nM.

In the case of `Cc1cc(N)cc(-c2nc3c4c(nc(OCC5(C)COCC5N(C)C)nc4c2F)N2C[C@H]4CC[C@H](N4)[C@H]2CCO3)c1C(F)(F)F` (mixture of isomers) [Example 15, 4-((((6aR,7S,10R)-2-(5-amino-3-methyl-2-(trifluoromethyl)phenyl)-1-fluoro-5,6,6a,7,8,9,10,11-octahydro-4-oxa-3,11a,12,14,15-pentaaza-7,10-methanocyclohepta[4,5]cycloocta [1,2,3-de]naphthalen-13-yl)oxy)methyl)-N,N,4-trimethyltetrahydrofuran-3-amine], the IC50 at KRAS G12D (setting [1]) was in the range of 0.3 to 3 nM.

For the compound `Cc1cc(N)cc(-c2nc3c4c(nc(O[C@@H]5COCC[C@H]5N(C)C)nc4c2F)N2C[C@H]4CC[C@H](N4)[C@H]2CCO3)c1C(F)(F)F` [Example 10, (3S,4R)-3-(((6aR,7S,10R)-2-(5-amino-3-methyl-2-(trifluoromethyl)phenyl)-1-fluoro-5,6,6a,7,8,9,10,11-octahydro-4-oxa-3,11a,12,14,15-pentaaza-7,10-methanocyclohepta[4,5]cycloocta [1,2,3-de]naphthalen-13-yl)oxy)-N,N-dimethyltetrahydro-2H-pyran-4-amine], at KRAS G12D (setting [1]), the IC50 was 3 to 1000 nM.

For `Cc1cc(N)cc(-c2nc3c4c(nc(OCC5(CN6CCC7(C6)CC7(F)F)CC5)nc4c2F)N2C[C@H]4CC[C@H](N4)[C@H]2CCO3)c1C(F)(F)F` (single isomer, unassigned) [Example 139], on WT KRAS, the IC50 was 3 to 1000 nM.
